Data from ChEMBL document CHEMBL3132838, “Synthesis of chromenoindole derivatives from Robinia pseudoacacia” (Medchemcomm, 2013).
Active and inactive are the calls of the source. The calls are words filed in the database; no cut-off is given here.

How the values were obtained:
[1] = test system: HCT-116; assay: Cytotoxicity against human p53-positive HCT116 cells assessed as cell viability after 24 hrs by MTT assay; type: functional, cell-based; conditions: HCT-116, 24 h
[2] = target: T1, Aromatase (Homo sapiens, UniProt P11511); assay: Inhibition of human placental aromatase
T1 sequence (P11511 whole entry): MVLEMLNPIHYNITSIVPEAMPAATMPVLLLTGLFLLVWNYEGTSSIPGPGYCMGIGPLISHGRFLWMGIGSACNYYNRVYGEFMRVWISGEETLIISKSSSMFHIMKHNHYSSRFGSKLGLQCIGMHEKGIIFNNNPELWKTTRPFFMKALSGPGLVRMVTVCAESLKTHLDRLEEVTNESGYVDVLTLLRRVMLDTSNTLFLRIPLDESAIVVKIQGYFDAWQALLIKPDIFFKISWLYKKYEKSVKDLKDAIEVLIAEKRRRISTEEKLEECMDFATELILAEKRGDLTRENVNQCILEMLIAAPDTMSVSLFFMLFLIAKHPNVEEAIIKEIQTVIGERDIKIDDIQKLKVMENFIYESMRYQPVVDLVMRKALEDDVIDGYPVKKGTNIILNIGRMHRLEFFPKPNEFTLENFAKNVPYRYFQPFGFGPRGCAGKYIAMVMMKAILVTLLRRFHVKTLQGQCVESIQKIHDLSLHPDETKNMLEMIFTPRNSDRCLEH

[3] = test system: HL-60; assay: Cytotoxicity against human HL60 cells assessed as cell survival at 40 uM after 72 hrs by MTT assay relative to control; type: functional; conditions: HL-60, 72 h, read-out: Survival
[4] = test system: Radical scavenging activity; assay: Antioxidant activity assessed as DPPH radical scavenging activity; type: functional
[5] = test system: HCT-116; assay: Cytotoxicity against human p53-positive HCT116 cells assessed as cell viability up to 100 uM after 24 hrs by MTT assay; type: functional, cell-based
[6] = test system: HL-60; assay: Cytotoxicity against human HL60 cells assessed as cell survival at 200 uM after 72 hrs by MTT assay relative to control; type: functional; conditions: HL-60, 72 h, read-out: Survival
[7] = test system: Steinernema feltiae; assay: Nematicidal activity against Steinernema feltiae assessed as viability up to 200 uM after 48 hrs by microscopic analysis; type: functional

SMILES	IC50 [1] [µM]	IC50 [2] [µM]	viability at 40 µM [3] [%]	IC50 [4] [µM]	Activity [5]	viability at 200 µM [6] [%]	Activity [7]
COc1ccc2c3c([nH]c2c1)-c1ccc(O)cc1OC3	66.1						
COc1ccc2c(c1)N[C@H]1c3ccc(O)cc3OC[C@@H]21 (racemic)		> 300	72	> 300	inactive	27	inactive
